Test results from ChEMBL document CHEMBL1134097, “Cyclooxygenase-inhibitory and antioxidant constituents of the aerial parts of Antirhea acutata” (Bioorg Med Chem Lett, 2001).

Experiments:
[1] = Activity determined by 1,1-diphenyl-2-picrylhydrazyl (DPPH) free radical antioxidant assay; assay type: functional
[2] = Activity determined by cytochrome c reduction antioxidant assay; assay type: functional
[3] = target: T1, Prostaglandin G/H synthase 2 (Homo sapiens, UniProt P35354); assay: Inhibitory concentration against Prostaglandin G/H synthase 2
T1 sequence (P35354 whole entry): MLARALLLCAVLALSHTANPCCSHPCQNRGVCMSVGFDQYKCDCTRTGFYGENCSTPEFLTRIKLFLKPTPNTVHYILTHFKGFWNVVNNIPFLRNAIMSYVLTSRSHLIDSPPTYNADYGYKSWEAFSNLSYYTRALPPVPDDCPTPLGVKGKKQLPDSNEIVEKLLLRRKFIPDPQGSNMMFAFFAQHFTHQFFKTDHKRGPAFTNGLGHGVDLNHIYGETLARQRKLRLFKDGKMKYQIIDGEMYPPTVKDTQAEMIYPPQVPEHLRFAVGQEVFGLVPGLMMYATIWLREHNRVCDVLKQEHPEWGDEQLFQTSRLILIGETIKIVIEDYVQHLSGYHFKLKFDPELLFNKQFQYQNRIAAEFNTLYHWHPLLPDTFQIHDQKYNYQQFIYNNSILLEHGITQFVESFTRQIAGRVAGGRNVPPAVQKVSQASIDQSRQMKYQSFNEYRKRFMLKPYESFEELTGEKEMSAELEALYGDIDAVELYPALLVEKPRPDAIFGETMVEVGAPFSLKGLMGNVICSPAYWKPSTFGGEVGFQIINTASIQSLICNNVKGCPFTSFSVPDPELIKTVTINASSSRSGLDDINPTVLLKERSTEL

[4] = target: T2, Prostaglandin G/H synthase 1 (Homo sapiens, UniProt P23219); assay: Inhibitory concentration against Prostaglandin G/H synthase 1
T2 sequence (P23219 whole entry): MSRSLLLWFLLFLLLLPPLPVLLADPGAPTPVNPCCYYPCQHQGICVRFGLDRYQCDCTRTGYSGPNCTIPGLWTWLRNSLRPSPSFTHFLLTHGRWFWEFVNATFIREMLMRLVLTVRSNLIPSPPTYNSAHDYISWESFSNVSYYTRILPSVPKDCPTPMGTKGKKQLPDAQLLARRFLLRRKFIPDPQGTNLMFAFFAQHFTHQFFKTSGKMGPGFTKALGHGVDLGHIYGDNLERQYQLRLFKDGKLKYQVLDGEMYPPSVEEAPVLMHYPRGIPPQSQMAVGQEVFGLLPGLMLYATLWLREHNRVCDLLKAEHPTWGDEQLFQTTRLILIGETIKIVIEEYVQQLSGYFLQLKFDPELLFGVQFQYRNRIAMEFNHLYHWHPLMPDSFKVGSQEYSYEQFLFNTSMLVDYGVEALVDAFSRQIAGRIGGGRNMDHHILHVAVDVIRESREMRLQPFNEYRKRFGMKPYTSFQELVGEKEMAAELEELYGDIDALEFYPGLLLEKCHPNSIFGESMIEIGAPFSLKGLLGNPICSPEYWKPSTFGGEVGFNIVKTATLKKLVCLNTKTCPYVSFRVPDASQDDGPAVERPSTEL

[5] = target: T1, Prostaglandin G/H synthase 2; assay: Activity against Prostaglandin G/H synthase 2 at > 70 ug/mL; inactive
[6] = target: T2, Prostaglandin G/H synthase 1; assay: Activity against Prostaglandin G/H synthase 1 at > 70 ug/mL; inactive

Which results are given for `COC(=O)C[C@H](c1ccc(O)c(O)c1)c1c(O)cc(O)c2c1O[C@H](c1ccc(O)c(O)c1)[C@H](O)C2`?
IC50 [1]: 29.1 µM; IC50 [2]: 16.3 µM

With `C=C[C@@H]1[C@@H](O)C[C@@H]2[C@]3(CC[C@]4(C)[C@@H]([C@H](C)CCC=C(C)C)CC[C@@]24C)C[C@]13CCC(=O)O` as the compound, how does the IC50 [3] read?
Its IC50 is 4.7 µM.

What about the IC50 [4] of the same compound?
The IC50 was 43.7 µM.

For `C[C@H](CC[C@H](O)C(C)(C)O)[C@H]1CC[C@@]2(C)[C@@H]3CCC4[C@@]5(CC[C@H](O)[C@@]4(C)C(=O)O)C[C@@]35CC[C@]12C` (stereo partly specified), which IC50 [5] is on record?
Its IC50 is “Not Active”.

What about the IC50 [6] of the same compound?
Its IC50 is “Not Active”.
